Data from ChEMBL document CHEMBL6182937, “Design, Synthesis, and Anti-ischemic Stroke Activity Evaluation of Novel GSNOR Inhibitors” (J Med Chem, 2025).
Activity calls are given as the source filed them. The calls are words filed in the database; no cut-off is given here.

Assays:
Homo sapiens = organism: Homo sapiens; experiment: Inhibition of GSNOR (unknown origin) at 1 uM in presence of NADH incubated for 10 mins by microplate reader analysis relative to control
SH-SY5Y [1] = experiment: Cytotoxicity against human SH-SY5Y cells up to 40 uM incubated for 24 hrs by CCK-8 assay; format: functional, cell-based
SH-SY5Y [2] = experiment: Neuroprotective activity against OGD/R-induced human […] cell injury model assessed as increase in cell viability at 10 uM measured for 24 hrs by CCK-8 assay; format: functional, cell-based
SH-SY5Y [3] = experiment: Neuroprotective activity against OGD/R-induced human […] cell injury model assessed as cell survival measured for 24 hrs by CCK-8 assay; format: functional, cell-based; settings: dose 1-10 µM
[4] = Permeability of compound across apical to basal side in human Caco-2 cells at 10 uM incubated for 120 mins by LC-MS/MS analysis; format: ADME, cell-based; settings: caco-2, 2 h
[5] = Stability in rat plasma assessed as half life at 1 uM incubated up to 120 mins by LC-MS/MS analysis; format: ADME, cell-free
[6] = Metabolic stability in rat liver microsomes assessed as half life preincubated for 5 mins followed by NADPH addition and measured up to 60 mins by LC-MS/MS analysis; format: ADME, Microsome; settings: time < 65 min
[7] = Metabolic stability in rat liver microsomes assessed as intrinsic clearance preincubated for 5 mins followed by NADPH addition and measured up to 60 mins by LC-MS/MS analysis; format: ADME, Microsome; settings: time < 65 min, read-out: CLH
[8] = Oral bioavailability in male C57BL/6 mouse at 10 mg/kg by LC-MS/MS analysis; format: ADME, organism-based; settings: in vivo
[9] = Half life in male C57BL/6 mouse at 10 mg/kg, po by LC-MS/MS analysis; format: ADME, organism-based; settings: in vivo
[10] = Half life in male C57BL/6 mouse at 2 mg/kg, iv by LC-MS/MS analysis; format: ADME, organism-based; settings: in vivo
[11] = MRT (0 to t) in male C57BL/6 mouse at 10 mg/kg, po by LC-MS/MS analysis; format: ADME, organism-based; settings: in vivo
[12] = MRT (0 to t) in male C57BL/6 mouse at 2 mg/kg, iv by LC-MS/MS analysis; format: ADME, organism-based; settings: in vivo
[13] = Half life in Sprague-Dawley rat at 10 mg/kg, iv by LC-MS/MS analysis; format: ADME, organism-based; settings: in vivo
[14] = Tmax in Sprague-Dawley rat at 10 mg/kg, iv by LC-MS/MS analysis; format: ADME, organism-based; settings: in vivo
[15] = Cmax in Sprague-Dawley rat at 10 mg/kg, iv by LC-MS/MS analysis; format: ADME, organism-based; settings: in vivo
[16] = AUC (0 to t) in Sprague-Dawley rat at 10 mg/kg, iv by LC-MS/MS analysis; format: ADME, organism-based; settings: in vivo
[17] = MRT (0 to t) in Sprague-Dawley rat at 10 mg/kg, iv by LC-MS/MS analysis; format: ADME, organism-based; settings: in vivo
[18] = Clearance in Sprague-Dawley rat at 10 mg/kg, iv by LC-MS/MS analysis; format: ADME, organism-based; settings: in vivo
Rattus norvegicus [19] = experiment: Neuroprotective activity against tMCAO- induced brain injury in Sprague-Dawley rat model assessed as reduction in infarct volume at 5 mg/kg, iv measured up to 24 hrs by TTC staining based analysis (reference value: 36.35 +/- 4.05%); format: functional; parameters: scale not given: the % may be the effect or the level left
Rattus norvegicus [20] = experiment: Neuroprotective activity against tMCAO- induced brain injury in Sprague-Dawley rat model assessed as reduction in infarct volume at 10 mg/kg, iv measured up to 24 hrs by TTC staining based analysis (reference value: 36.35 +/- 4.05%); format: functional; parameters: scale not given: the % may be the effect or the level left
Rattus norvegicus [21] = experiment: Neuroprotective activity against tMCAO- induced brain injury in Sprague-Dawley rat model assessed as reduction in neurological score at 10 mg/kg, iv measured up to 24 hrs Longa scale analysis; format: functional, organism-based
Rattus norvegicus [22] = experiment: Neuroprotective activity against tMCAO- induced brain injury in Sprague-Dawley rat model assessed as reduction in neurological score at 5 mg/kg, iv measured up to 24 hrs Longa scale analysis; format: functional, organism-based
Rattus norvegicus [23] = experiment: Neuroprotective activity against tMCAO- induced brain injury in Sprague-Dawley rat model assessed as […] at 5 mg/kg, iv measured up to 24 hrs; format: functional, organism-based
Rattus norvegicus [24] = experiment: Neuroprotective activity against tMCAO- induced brain injury in Sprague-Dawley rat model assessed as upregulation of clstn1 level in brain at 5 mg/kg, iv measured after 24 hrs by LC-MS/MS analysis; format: functional, organism-based

CCOc1cc(-n2c(-c3ccc(-n4ccnc4)cc3)cc3ccc(C(=O)OC)cc32)ccc1C(N)=O
inhibition (Homo sapiens): 16.4%
Activity (SH-SY5Y [1]): Active
Activity (SH-SY5Y [2]): Active
Activity (SH-SY5Y [3]): Dose-dependent-effect
permeability [4]: Permeable
half-life at 1 µM [5]: 257 min
half-life [6]: 158 min
CLint scaled [7]: 15.8 mL/min/kg
bioavailability [8]: 11.2%
half-life [9]: 76.2 min
half-life [10]: 59.4 min
MRT last [11]: 66 min
MRT last [12]: 47.4 min
half-life [13]: 36 min
Tmax [14]: 4.8 min
Cmax [15]: 11600 ng/mL
AUC(0-t) [16]: 8040 ng·h/mL
MRT last [17]: 42.6 min
clearance [18]: 20.9 mL/min/kg
Activity (Rattus norvegicus [19]): 24.39%
Activity (Rattus norvegicus [20]): 12.74%
Activity (Rattus norvegicus [21]): Active
Activity (Rattus norvegicus [22]): Active
Activity (Rattus norvegicus [23]): Active
Activity (Rattus norvegicus [24]): Active
